According to patent US20070149515A1, “6-(2,4,6-Trifluorophenyl)-triazolopyrimidines, method for the production thereof, use thereof for controlling harmful fungi, and substances containing the same” (BASF Aktiengesellschaft, priority 2003, published 2007):

Key:
[1] = tested on: Pyrenophora teres; assay: 1 day protective application against net blotch of barley; assay type: in vivo; conditions: 63 ppm, sprayed to runoff on barley seedlings; inoculated 24 hours after drying; assessed visually after 6 days; untreated plants 90% infected
Protocol: The active compounds were prepared separately or together as a stock solution with 0.25% by weight of active compound in acetone or DMSO. 1% by weight of the emulsifier Uniperol® EL (wetting agent with an emulsifying and dispersing action based on ethoxylated alkylphenols) was added to this solution and appropriately diluted with water to the desired concentration. Use example 2—Activity in 1 day protective application against net blotch of barley caused by Pyrenophora teres Leaves of pot-grown barley seedlings were sprayed to runoff point with an aqueous suspension in the active compound concentration given below. 24 hours after the spray coating had dried on, the test plants were inoculated with an aqueous suspension of spores of Pyrenophora [syn. Drechslera] teres, the causative agent of net blotch. The test plants were subsequently placed in a greenhouse at temperatures of between 20 and 24° C. and a relative atmospheric humidity of 95 to 100%. After 6 days, the extent of development of the disease was determined visually in % of infection of the total leaf area.

[2] = tested on: Sphaerotheca fuliginea; assay: Protective application against powdery mildew on cucumber leaves; assay type: in vivo; conditions: 63 ppm, sprayed to runoff on cucumber seedlings 'Chinese Snake'; inoculated 20 hours after drying; assessed visually after 7 days; untreated plants 100% infected
Protocol: The active compounds were prepared separately or together as a stock solution with 0.25% by weight of active compound in acetone or DMSO. 1% by weight of the emulsifier Uniperol® EL (wetting agent with an emulsifying and dispersing action based on ethoxylated alkylphenols) was added to this solution and appropriately diluted with water to the desired concentration. Use example 1—Activity in protective application against powdery mildew on cucumber leaves caused by Sphaerotheca fuliginea Leaves of pot-grown cucumber seedlings of the variety “Chinese Snake” in the cotyledon stage were sprayed to runoff point with an aqueous suspension in the active compound concentration given below. 20 hours after the spray coating had dried on, the plants were inoculated with an aqueous suspension of spores of powdery mildew of cucumber (Sphaerotheca fuliginea). The plants were subsequently cultivated for 7 days in a greenhouse at temperatures of between. 20 and 24° C. and a relative atmospheric humidity of 60 to 80%. The extent of mildew development was then determined visually in % of infection of the cotyledon area.

`CC1CCN(c2c(-c3c(F)cc(F)cc3F)c(C#N)nc3ncnn23)CC1` [Compound I-2, 5-cyano-6-(2,4,6-trifluorophenyl)-7-(4-methylpiperidinyl)[1,2,4]triazolo[1,5a]pyrimidine] was tested, and the “extent of development of the disease in % of infection of the total leaf area” value [1] was “no infection” and the “extent of mildew development in % of infection of the cotyledon area” value [2] was “no infection”.

For `COc1nc2ncnn2c(N2CCC(C)CC2)c1-c1c(F)cc(F)cc1F` [Compound I-5, 5-methoxy-6-(2,4,6-trifluorophenyl)-7-(4-methylpiperidinyl)[1,2,4]triazolo[1,5a]pyrimidine], the “extent of development of the disease in % of infection of the total leaf area” value [1] was “no infection” and the “extent of mildew development in % of infection of the cotyledon area” value [2] was “no infection”.
